# Source: patent US10882825B2, “Non-solvated crystal, preparation method and application thereof” (SHENZHEN CHIPSCREEN BIOSCIENCES CO., LTD., priority 2016, dated 2021)
# Experiment: Stability test of the crystal form (high temperature, high humidity, strong light irradiation; X-ray powder diffraction and HPLC content)
# Format: physicochemical
# Conditions: high temperature (60° C.), high humidity (90%), strong light irradiation (4500 Lx); day 0 vs day 10
# Experimental: Test conditions of X-ray powder diffraction: instrument: D/MAX-1200 (Rigaku, Japan); radiation source: Cu-Kα (40 kV, 40 mA).
# Test conditions of stability: high temperature (60° C.), high humidity (90%) and strong light irradiation (4500 Lx) tests are performed according to the Chinese Pharmacopoeia 2010 edition, Part II, Appendix XIX C.
# Test conditions of HPLC: instrument: Dionex UltiMate3000; column: Shim-pack VP-ODS 5 μm 250 L×4.6; detector: VWD-3100, detection wavelength: 256 nm; mobile phase: methanol-water-glacial acetic acid (30:70:0.4); flow rate: 1.0 mL/min, column temperature: 30° C.
# High temperature (60° C.), high humidity (90%) and strong light irradiation (4500 Lx) tests of the non-solvated crystal A of example 1, non-solvated crystal B of example 2, and non-solvated crystal C of example 3 were performed according to the Chinese Pharmacopoeia 2010 edition, Part II, Appendix XIX C. Samples on day 0 and day 10 respectively were taken to determine the X-ray powder diffraction pattern and content (HPLC method).
smiles,measurement,value
"COc1ccc2c(Oc3ccc4c(C(=O)Nc5ccccc5N)cccc4c3)ccnc2c1 [non-solvated crystal A, N-(2-aminophenyl)-6-(7-methoxyquinoline-4-oxo)-1-naphthaleneformamide]",content (HPLC method) after stability test,does not change significantly
same,crystal form (X-ray powder diffraction pattern) after stability test,remain unchanged in their original crystal forms
